PubChem BioAssay AID1963977 (Molecular Pharmacology Branch, DTP, NCI, 2024)

Test system: 624824-186-R-J3-PDC multicell spheroids, viability
Test: Anticancer human tumor 624824-186-R-J3-PDC patient-derived colon adenocarcinoma cell line growth inhibition [PI3K]
Settings: for IC50: curve of first compound; for viability, T/C: stronger effect = lower value
Source text: Combinatorial screen of targeted agents with the PI3K inhibitors inavolisib, alpelisib, duvelisib, and copanlisib in multi-cell type tumor spheroids
A high-throughput screen of multi-cell type tumor spheroids was designed to identify active combinations of targeted small molecules and PI3K pathway inhibitors. Complex spheroids include a stromal component modeled by human endothelial cells (HUVEC) and fibroblasts modeled by human mesenchymal stem cells (MSCs). The concentration ranges selected for each drug and investigational agent were based upon clinically achievable concentrations if the clinical Cmax of the agent was known.
Compounds. The drugs and investigational agents: inavolisib (NSC800729), alpelisib (NSC765974), duvelisib (NSC772469), copanlisib (NSC816437), ipatasertib (NSC767898), afuresertib (NSC778305), talazoparib (NSC767125), sapanisertib (NSC764658), selumetinib (NSC741078), tovorafenib (DAY101, NSC766906), vemurafenib (NSC761431), ravoxertinib (NSC781343), sotorasib (NSC818433), MRTX1133 (NSC 836407), abemaciclib (NSC 768073), palbociclib (NSC758247), venetoclax (NSC 766270), SY5609 (NSC837396), enzalutamide (NSC755605), and darolutamide (NSC825331), were obtained from the National Cancer Institute (NCI) Developmental Therapeutics Program Chemical Repository. The FDA-approved anticancer drug set is available from the NCI Developmental Therapeutics Program. […] The stock solutions were prepared in dimethyl sulfoxide (DMSO, Sigma-Aldrich, St. Louis, MO, cat. D2650) at 800-fold the tested concentration and stored at -70 degrees C prior to their use. All drugs and investigational agents were tested over a range starting from a high concentration at or near the clinical Cmax and decreasing in half-log increments. If the clinical Cmax for an agent had not been determined, the highest concentration tested was 10 microM.
Cell Culture. All cells were maintained in an incubator at 37 degrees C and 5% CO2 with 95% humidity. The PDC lines were cultured according to standard operating procedures established by the NCI PDMR (https://pdmr.cancer.gov/sops/default.htm). All PDCs were thawed and cultured in Matrigel-coated flasks prepared with a working solution of 1X Ham's F-12 nutrient mix, without supplementation (Invitrogen, Waltham, MA, cat. 11765054), 100 U/mL penicillin-streptomycin (Invitrogen, cat. 15140122), and 2.5% Matrigel (Corning Inc., Corning, NY, cat. 354248) for the first three passages. The 354836-022-R-J1-PDC, 475296-252-R-J1-PDC, and 997726-040-R-J2-PDC lines were cultured in 6A media, which includes advanced DMEM/F-12 (Thermo Fisher Scientific, cat. 12634028), 10 mM HEPES (Thermo Fisher Scientific, cat. 15630080), 1X GlutaMAX supplement (Thermo Fisher Scientific, cat. 35050061), 0.1 mg/mL primocin (InvivoGen, San Diego, CA, cat. ant-pm-2), 10% defined fetal bovine serum, heat inactivated (HyClone Laboratories Inc., Logan, UT, cat. SH30070.03HI), 50% L-WRN conditioned media (ATCC, cat. CRL-3276), 1.25 mM N-Acetyl-L-cysteine (Sigma-Aldrich, cat. A9165), 10 mM nicotinamide (Sigma-Aldrich, cat. N0636), 1X B-27 supplement (Thermo Fisher Scientific, cat. 17504044), 1X N-2 supplement (Thermo Fisher Scientific, cat. 17502048), and 10 microM Y-27632 dihydrochloride (Tocris Bioscience, Bristol, United Kingdom, cat. 1254). The 624824-186-R-J2-PDC line was cultured in 6C/Colon 1B media, which includes all 6A media components plus 50 ng/mL human EGF recombinant protein (Thermo Fisher Scientific, cat. PHG0311). […]

[1] = second compound 0.0316 µM, first compound 0.000316 µM
[2] = second compound 0.0316 µM, first compound 0.001 µM
[3] = second compound 0.0316 µM, first compound 0.00316 µM
[4] = second compound 0.0316 µM, first compound 0.01 µM
[5] = second compound 0.0316 µM, first compound 0.0316 µM
[6] = second compound 0.0316 µM, first compound 0.1 µM
[7] = second compound 0.1 µM, first compound 0.000316 µM
[8] = second compound 0.1 µM, first compound 0.001 µM
[9] = second compound 0.1 µM, first compound 0.00316 µM
[10] = second compound 0.1 µM, first compound 0.01 µM
[11] = second compound 0.1 µM, first compound 0.0316 µM
[12] = second compound 0.1 µM, first compound 0.1 µM
[13] = second compound 0.316 µM, first compound 0.000316 µM
[14] = second compound 0.316 µM, first compound 0.001 µM
[15] = second compound 0.316 µM, first compound 0.00316 µM
[16] = second compound 0.316 µM, first compound 0.01 µM
[17] = second compound 0.316 µM, first compound 0.0316 µM
[18] = second compound 0.316 µM, first compound 0.1 µM
[19] = second compound 1 µM, first compound 0.000316 µM
[20] = second compound 1 µM, first compound 0.001 µM
[21] = second compound 1 µM, first compound 0.00316 µM
[22] = second compound 1 µM, first compound 0.01 µM
[23] = second compound 1 µM, first compound 0.0316 µM
[24] = second compound 1 µM, first compound 0.1 µM
[25] = second compound 3.16 µM, first compound 0.00316 µM
[26] = second compound 3.16 µM, first compound 0.01 µM
[27] = second compound 3.16 µM, first compound 0.0316 µM
[28] = second compound 3.16 µM, first compound 0.1 µM
[29] = second compound 10 µM, first compound 0.00316 µM
[30] = second compound 10 µM, first compound 0.01 µM
[31] = second compound 10 µM, first compound 0.0316 µM
[32] = second compound 10 µM, first compound 0.1 µM
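Also: spheroids exposed to agents for seven days before luminescence read.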
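For viability, T/C in this document: luminescent signal used as a stand-in for spheroid viability; percent viability relative to DMSO vehicle control wells taken as 100%.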

CC(C)n1nc(-c2ccc3oc(N)nc3c2)c2c(N)ncnc21 + CC(Nc1ccc2c(c1)OCCn1cc(N3C(=O)OCC3C(F)F)nc1-2)C(N)=O
IC50 (second compound 0.00316 µM): > 100 nM | IC50 (second compound 0.01 µM): > 100 nM | IC50 (second compound 0.0316 µM): 91.7 nM | IC50 (second compound 0.1 µM): 81.1 nM | IC50 (second compound 0.316 µM): 71 nM | IC50 (second compound 1 µM): 42.2 nM | viability, T/C (second compound 0.00316 µM, first compound 0.000316 µM): 99.7% | viability, T/C (second compound 0.00316 µM, first compound 0.001 µM): 96.8% | viability, T/C (second compound 0.00316 µM, first compound 0.00316 µM): 102% | viability, T/C (second compound 0.00316 µM, first compound 0.01 µM): 101% | viability, T/C (second compound 0.00316 µM, first compound 0.0316 µM): 96.2% | viability, T/C (second compound 0.00316 µM, first compound 0.1 µM): 53.6% | viability, T/C (second compound 0.01 µM, first compound 0.000316 µM): 97.3% | viability, T/C (second compound 0.01 µM, first compound 0.001 µM): 102% | viability, T/C (second compound 0.01 µM, first compound 0.00316 µM): 103% | viability, T/C (second compound 0.01 µM, first compound 0.01 µM): 105% | viability, T/C (second compound 0.01 µM, first compound 0.0316 µM): 93.6% | viability, T/C (second compound 0.01 µM, first compound 0.1 µM): 59.8% | viability, T/C [1]: 105% | viability, T/C [2]: 106% | viability, T/C [3]: 98.2% | viability, T/C [4]: 99.9% | viability, T/C [5]: 93.2% | viability, T/C [6]: 46.5% | viability, T/C [7]: 99.2% | viability, T/C [8]: 106% | viability, T/C [9]: 101% | viability, T/C [10]: 96.3% | viability, T/C [11]: 84.5% | viability, T/C [12]: 42.3% | viability, T/C [13]: 92.4% | viability, T/C [14]: 92.7% | viability, T/C [15]: 90.7% | viability, T/C [16]: 84.9% | viability, T/C [17]: 83% | viability, T/C [18]: 36.2% | viability, T/C [19]: 85.8% | viability, T/C [20]: 86.9% | viability, T/C [21]: 86.5% | viability, T/C [22]: 70.5% | viability, T/C [23]: 59.5% | viability, T/C [24]: 26.2%

CC(=O)c1c(C)c2cnc(Nc3ccc(N4CCNCC4)cn3)nc2n(C2CCCC2)c1=O + Cc1nc(NC(=O)N2CCCC2C(N)=O)sc1-c1ccnc(C(C)(C)C(F)(F)F)c1
IC50 (second compound 0.0316 µM): > 100 nM | IC50 (second compound 0.1 µM): > 100 nM | IC50 (second compound 0.316 µM): > 100 nM | IC50 (second compound 1 µM): > 100 nM | IC50 (second compound 3.16 µM): > 100 nM | IC50 (second compound 10 µM): 63.9 nM | viability, T/C [1]: 109% | viability, T/C [2]: 102% | viability, T/C [3]: 119% | viability, T/C [4]: 99.5% | viability, T/C [5]: 112% | viability, T/C [6]: 101% | viability, T/C [7]: 97.3% | viability, T/C [8]: 104% | viability, T/C [9]: 113% | viability, T/C [10]: 103% | viability, T/C [11]: 107% | viability, T/C [12]: 106% | viability, T/C [13]: 112% | viability, T/C [14]: 107% | viability, T/C [15]: 114% | viability, T/C [16]: 110% | viability, T/C [17]: 104% | viability, T/C [18]: 109% | viability, T/C [19]: 106% | viability, T/C [20]: 99.1% | viability, T/C [21]: 109% | viability, T/C [22]: 94.8% | viability, T/C [23]: 101% | viability, T/C [24]: 93.4% | viability, T/C (second compound 3.16 µM, first compound 0.000316 µM): 85.7% | viability, T/C (second compound 3.16 µM, first compound 0.001 µM): 95.7% | viability, T/C [25]: 97.8% | viability, T/C [26]: 85.1% | viability, T/C [27]: 85.3% | viability, T/C [28]: 62.9% | viability, T/C (second compound 10 µM, first compound 0.000316 µM): 71.8% | viability, T/C (second compound 10 µM, first compound 0.001 µM): 73.1% | viability, T/C [29]: 76% | viability, T/C [30]: 64.6% | viability, T/C [31]: 59.7% | viability, T/C [32]: 43.9%

CCN1CCN(Cc2ccc(Nc3ncc(F)c(-c4cc(F)c5nc(C)n(C(C)C)c5c4)n3)nc2)CC1 + CC(Nc1ncnc2nc[nH]c12)c1cc2cccc(Cl)c2c(=O)n1-c1ccccc1
IC50 (second compound 0.0316 µM): > 1000 nM | IC50 (second compound 0.1 µM): > 1000 nM | IC50 (second compound 0.316 µM): > 1000 nM | IC50 (second compound 1 µM): > 1000 nM | IC50 (second compound 3.16 µM): > 1000 nM | IC50 (second compound 10 µM): > 1000 nM | viability, T/C [3]: 101% | viability, T/C [4]: 94% | viability, T/C [5]: 101% | viability, T/C [6]: 110% | viability, T/C (second compound 0.0316 µM, first compound 0.316 µM): 99% | viability, T/C (second compound 0.0316 µM, first compound 1 µM): 109% | viability, T/C [9]: 103% | viability, T/C [10]: 108% | viability, T/C [11]: 97.2% | viability, T/C [12]: 106% | viability, T/C (second compound 0.1 µM, first compound 0.316 µM): 111% | viability, T/C (second compound 0.1 µM, first compound 1 µM): 97.6% | viability, T/C [15]: 105% | viability, T/C [16]: 110% | viability, T/C [17]: 96.4% | viability, T/C [18]: 111% | viability, T/C (second compound 0.316 µM, first compound 0.316 µM): 99.8% | viability, T/C (second compound 0.316 µM, first compound 1 µM): 99.7% | viability, T/C [21]: 93.1% | viability, T/C [22]: 103% | viability, T/C [23]: 104% | viability, T/C [24]: 94.3% | viability, T/C (second compound 1 µM, first compound 0.316 µM): 92.2% | viability, T/C (second compound 1 µM, first compound 1 µM): 101% | viability, T/C [25]: 106% | viability, T/C [26]: 100% | viability, T/C [27]: 102% | viability, T/C [28]: 90.8% | viability, T/C (second compound 3.16 µM, first compound 0.316 µM): 88.1% | viability, T/C (second compound 3.16 µM, first compound 1 µM): 81.8% | viability, T/C [29]: 96.6% | viability, T/C [30]: 96.7% | viability, T/C [31]: 87% | viability, T/C [32]: 78.1% | viability, T/C (second compound 10 µM, first compound 0.316 µM): 65.3% | viability, T/C (second compound 10 µM, first compound 1 µM): 67%
